Patent US20110190280A1, “Thiazole And Oxazole Kinase Inhibitors” (priority 2007, published 2011)
Counter-ions that a name gives are not always drawn.

Experiments:
SK-MEL-28 tumor cells = test: Cell growth inhibition assay (CellTiter-Glo), SK-MEL-28; details: Homo sapiens, SK-MEL-28, 72 h, read-out: Activity in SK-MEL-28 Tumor Cells;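 further: luminescent total ATP as a proxy for cell number, threefold serial dilutions at 0.2% DMSO, percent growth inhibition versus DMSO vehicle control wells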
HT-29 tumor cells = test: Cell growth inhibition assay (CellTiter-Glo), HT-29; details: Homo sapiens, HT-29, 72 h, read-out: Activity in HT-29 Tumor Cells;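 further: ATP content read by luminescence as proxy for cell number, growth inhibition versus DMSO vehicle wells, 0.2% DMSO final, nine serial threefold compound dilutions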
Experimental: (§1) Cell Growth Inhibition Assays Human colon tumor cells (Colo205) were cultured in RPMI (Mediatech 50-020-PB) containing 10% FBS and 1% penicillin-streptomycin. […] Human melanoma cancer cells (A375-F11S) were cultured in RPMI (Mediatech 50-020-PB) containing 10% FBS, 1% sodium pyruvate, and 1% penicillin-streptomycin. Human colon cancer cells (HT-29) were cultured in high glucose DMEM (Mediatech 50-013-PB) containing 10% FBS and 1% penicillin-streptomycin. Human melanoma cancer cells (SK-MEL-3) were cultured in McCoy's 5A (50-025-PB) containing 15% FBS, and 1% penicillin-streptomycin. All cell lines were maintained at 37° C. in a humidified 5% CO2, 95% air incubator.
(§2) The next day, compounds were diluted as follows: For 96-well assays, 13.5 μl of compound in DMSO were diluted using nine (9) serial 1:3 dilutions of 4.5 μl in 9 μl of DMSO. Medium (270 μl/well of RPMI with 10% FBS and 1% penicillin-streptomycin) was added to the plates. Aliquots (7 μl) were added to cells in the final assay giving a final DMSO concentration of 0.2%. For 384-well assays, 15 μl of compound in DMSO were diluted using nine (9) serial 1:3 dilutions of 5 μl in 10 μl of DMSO, followed by a further dilution of 5 μl of compound with 95 μl of medium, of which 2 μl are added to cells in the final assay giving a final DMSO concentration of 0.2%. Cells were incubated at 37° C., 5% CO2 for 3 days.
(§3) Total ATP was measured (as a surrogate estimate of cell number) using CellTiter-Glo® (Promega G7571) reagent. Briefly, plates were removed from the incubator and allowed to equilibrate to room temperature for 30 minutes. CellTiter-Glo® (25 μl or 55 μl for 384-well or 96-well assays, respectively) reagent was added to each well and plates were shaken on an orbital plate shaker for 2 minutes. Plates were incubated without shaking for a further 30 minutes and read on an LJL Analyst GT reader in luminometer mode with an integration time of 0.5 seconds per well. Percent inhibition of cell growth was calculated relative to DMSO vehicle-treated control wells.

SK-MEL-3 tumor cells = test: Cell growth inhibition assay (CellTiter-Glo), SK-MEL-3; details: Homo sapiens, SK-MEL3, 72 h, read-out: Activity in SK-MEL-3 Tumor Cells;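 further: human melanoma cells grown with compound for 3 days in 0.2% DMSO, total ATP read by luminescence as proxy for cell number, growth inhibition versus DMSO-treated wells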
B-Raf = B-Raf (Homo sapiens, UniProt P15056); test: B-Raf Accelerated MEK ATPase assay (BRAMA); assay type: biochemical; details: BRAMA enzyme assay; class by pIC50; read-out: B-Raf Activity
Experimental: Compounds of the present invention were tested for B-Raf […] inhibitory activity in a B-Raf Accelerated MEK ATPase assay (BRAMA). The BRAMA assay is a high sensitivity assay which measures an intrinsic MEK-mediated ATP hydrolysis uncoupled from downstream ERK phosphorylation by coupling the formation of ADP to NADH oxidation through the enzymes pyruvate kinase and lactate dehydrogenase. When ADP production is initiated by addition of catalytic amounts of an activated RAF enzyme and non-phosphorylated MEK, one observes robust ADP production concomitant with RAF-mediated phosphorylation of MEK. Specific details of the assay are disclosed in: C. Rominger, M. Schaber, E. May. Assay for B-Raf Activity Based on Intrinsic MEK ATPase Activity.

A375P tumor cells = test: Cell growth inhibition assay (CellTiter-Glo), A375P; details: Homo sapiens, 72 h, read-out: Activity in A375P Tumor Cells;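 further: total ATP luminescence used as proxy for cell number, serial threefold compound dilutions at 0.2% DMSO, growth inhibition expressed versus DMSO vehicle-treated wells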
Colo205 tumor cells = test: Cell growth inhibition assay (CellTiter-Glo), Colo205; details: Homo sapiens, COLO 205, 72 h, read-out: Activity in Colo205 Tumor Cells;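 further: growth measured via total ATP luminescence (CellTiter-Glo) as a proxy for cell number, inhibition expressed against DMSO-treated control wells, 3-day exposure at 0.2% final DMSO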
Experimental: as §1, §2, §3

Sequence of B-Raf (P15056 whole entry): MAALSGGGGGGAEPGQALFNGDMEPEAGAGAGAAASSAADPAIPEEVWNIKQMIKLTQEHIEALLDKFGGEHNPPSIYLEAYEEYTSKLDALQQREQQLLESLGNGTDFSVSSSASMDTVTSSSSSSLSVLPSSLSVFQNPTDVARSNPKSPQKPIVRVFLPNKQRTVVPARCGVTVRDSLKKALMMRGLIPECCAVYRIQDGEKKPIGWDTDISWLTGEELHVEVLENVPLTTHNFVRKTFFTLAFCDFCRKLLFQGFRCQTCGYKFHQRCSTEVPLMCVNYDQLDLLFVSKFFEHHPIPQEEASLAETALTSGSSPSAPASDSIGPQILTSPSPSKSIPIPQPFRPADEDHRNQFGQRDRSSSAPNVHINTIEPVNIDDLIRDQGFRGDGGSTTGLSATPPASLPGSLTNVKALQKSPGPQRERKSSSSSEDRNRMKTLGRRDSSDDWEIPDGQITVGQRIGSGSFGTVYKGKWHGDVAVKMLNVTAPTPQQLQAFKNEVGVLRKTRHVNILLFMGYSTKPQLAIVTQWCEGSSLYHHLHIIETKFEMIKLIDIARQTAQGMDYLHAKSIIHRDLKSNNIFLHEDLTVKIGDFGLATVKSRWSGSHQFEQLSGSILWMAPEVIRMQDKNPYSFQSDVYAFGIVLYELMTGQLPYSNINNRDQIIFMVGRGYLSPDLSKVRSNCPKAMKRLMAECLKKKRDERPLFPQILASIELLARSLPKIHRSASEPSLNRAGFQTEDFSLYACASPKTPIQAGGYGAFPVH

IC50 (SK-MEL-28 tumor cells) [nM] | IC50 (HT-29 tumor cells) [nM] | IC50 (SK-MEL-3 tumor cells) [nM] | IC50 (B-Raf) [nM] | IC50 (A375P tumor cells) [nM] | IC50 (Colo205 tumor cells) [nM] | Structure (SMILES)
500 to 5000 | < 500 | < 500 | < 100 | < 500 | 500 to 5000 | COc1cc(OC)cc(-c2nc(NCCF)sc2-c2ccnc(Nc3ccc(OCCN4CCCC4)c(Cl)c3)n2)c1 [Example 21, 4-{4-[3,5-Bis(methyloxy)phenyl]-2-[(2-fluoroethyl)amino]-1,3-thiazol-5-yl}-N-(3-chloro-4-{[2-(1-pyrrolidinyl)ethyl]oxy}phenyl)-2-pyrimidinamine]
< 500 | < 500 | < 500 | < 100 | < 500 | < 500 | COc1cc(OC)cc(-c2nc(NC3CCC3)sc2-c2ccnc(Nc3ccc(OC4CCN(CCS(C)(=O)=O)CC4)c(F)c3)n2)c1 [Example 22, 4-[4-[3,5-Bis(methyloxy)phenyl]-2-(cyclobutylamino)-1,3-thiazol-5-yl]-N-[3-fluoro-4-({1-[2-(methylsulfonyl)ethyl]-4-piperidinyl}oxy)phenyl]-2-pyrimidinamine]
500 to 5000 | < 500 | < 500 | < 100 | 500 to 5000 | 500 to 5000 | COc1cc(OC)cc(-c2nc(Nc3ccccc3)sc2-c2ccnc(Nc3ccc(OC4CCN(CCS(C)(=O)=O)CC4)c(F)c3)n2)c1 [Example 23, 4-[4-[3,5-Bis(methyloxy)phenyl]-2-(phenylamino)-1,3-thiazol-5-yl]-N-[3-fluoro-4-({1-[2-(methylsulfonyl)ethyl]-4-piperidinyl}oxy)phenyl]-2-pyrimidinamine hydrochloride]
500 to 5000 | < 500 | < 500 | < 100 | < 500 | 500 to 5000 | CCNc1nc(-c2cc(C)cc(OC)c2)c(-c2ccnc(Nc3ccc(N4CCOCC4)c(C(F)(F)F)c3)n2)s1 [Example 25, 4-{2-(Ethylamino)-4-[3-methyl-5-(methyloxy)phenyl]-1,3-thiazol-5-yl}-N-[4-(4-morpholinyl)-3-(trifluoromethyl)phenyl]-2-pyrimidinamine]
< 500 | < 500 | < 500 | < 100 | < 500 | < 500 | CCNc1nc(-c2cc(C)cc(OC)c2)c(-c2ccnc(Nc3ccc(N4CCN(C)CC4)c(Cl)c3)n2)s1 [Example 31, N-[3-Chloro-4-(4-methyl-1-piperazinyl)phenyl]-4-{2-(ethylamino)-4-[3-methyl-5-(methyloxy)phenyl]-1,3-thiazol-5-yl}-2-pyrimidinamine]
< 500 | < 500 | < 500 | < 100 | < 500 | < 500 | CCNc1nc(-c2cc(C)cc(OC)c2)c(-c2ccnc(Nc3ccc(OC4CCN(CCS(C)(=O)=O)CC4)c(F)c3)n2)s1 [Example 32, 4-{2-(Ethylamino)-4-[3-methyl-5-(methyloxy)phenyl]-1,3-thiazol-5-yl}-N-[3-fluoro-4-({1-[2-(methylsulfonyl)ethyl]-4-piperidinyl}oxy)phenyl]-2-pyrimidinamine]
< 500 | < 500 | < 500 | < 100 | < 500 | < 500 | CCNc1nc(-c2cc(C)cc(OC)c2)c(-c2ccnc(Nc3ccc(N4CCN(C)CC4)c(OC)c3)n2)s1 [Example 33, 4-{2-(Ethylamino)-4-[3-methyl-5-(methyloxy)phenyl]-1,3-thiazol-5-yl}-N-[3-(methyloxy)-4-(4-methyl-1-piperazinyl)phenyl]-2-pyrimidinamine]
500 to 5000 | < 500 | < 500 | < 100 | < 500 | < 500 | CCNc1nc(-c2cc(C)cc(OC)c2)c(-c2ccnc(Nc3ccc(OCCOC)c(F)c3)n2)s1 [Example 38, 4-{2-(Ethylamino)-4-[3-methyl-5-(methyloxy)phenyl]-1,3-thiazol-5-yl}-N-(3-fluoro-4-{[2-(methyloxy)ethyl]oxy}phenyl)-2-pyrimidinamine]
500 to 5000 | < 500 | < 500 | < 100 | < 500 | < 500 | CCNc1nc(-c2cccc(OC)c2)c(-c2ccnc(Nc3ccc(N4CCOCC4)nc3)n2)s1 [Example 42, 4-{2-(Ethylamino)-4-[3-(methyloxy)phenyl]-1,3-thiazol-5-yl}-N-[6-(4-morpholinyl)-3-pyridinyl]-2-pyrimidinamine]
500 to 5000 | < 500 | 500 to 5000 | < 100 | 500 to 5000 | 500 to 5000 | CCNc1nc(-c2cccc(N(C)C)c2)c(-c2ccnc(Nc3ccc(OCCN4CCCC4)c(Cl)c3)n2)s1 [Example 45, N-(3-Chloro-4-{[2-(1-pyrrolidinyl)ethyl]oxy}phenyl)-4-[4-[3-(dimethylamino)phenyl]-2-(ethylamino)-1,3-thiazol-5-yl]-2-pyrimidinamine]
> 5000 | < 500 | < 500 | < 100 | < 500 | 500 to 5000 | CCNc1nc(-c2cccc(N(C)C)c2)c(-c2ccnc(Nc3ccc(N4CCOCC4)nc3)n2)s1 [Example 47, 4-[4-[3-(Dimethylamino)phenyl]-2-(ethylamino)-1,3-thiazol-5-yl]-N-[6-(4-morpholinyl)-3-pyridinyl]-2-pyrimidinamine]
500 to 5000 | < 500 | < 500 | < 100 | < 500 | 500 to 5000 | CCNc1nc(-c2ccc(Cl)c(OC)c2)c(-c2ccnc(Nc3ccc(OCCN4CCCC4)c(Cl)c3)n2)s1 [Example 49, 4-[4-[4-Chloro-3-(methyloxy)phenyl]-2-(ethylamino)-1,3-thiazol-5-yl]-N-(3-chloro-4-{[2-(1-pyrrolidinyl)ethyl]oxy}phenyl)-2-pyrimidinamine]
500 to 5000 | < 500 | < 500 | < 100 | 500 to 5000 | < 500 | COc1cc(-c2nc(NC3CC3)sc2-c2ccnc(Nc3ccc(OCCN4CCCC4)c(Cl)c3)n2)ccc1Cl [Example 51, 4-[4-[4-Chloro-3-(methyloxy)phenyl]-2-(cyclopropylamino)-1,3-thiazol-5-yl]-N-(3-chloro-4-{[2-(1-pyrrolidinyl)ethyl]oxy}phenyl)-2-pyrimidinamine]
< 500 | < 500 | < 500 | < 100 | < 500 | < 500 | CCNc1nc(-c2ccc3c(c2)OCO3)c(-c2ccnc(Nc3ccc(OC4CCN(CCS(C)(=O)=O)CC4)c(F)c3)n2)s1 [Example 52, 4-[4-(1,3-Benzodioxol-5-yl)-2-(ethylamino)-1,3-thiazol-5-yl]-N-[3-fluoro-4-({1-[2-(methylsulfonyl)ethyl]-4-piperidinyl}oxy)phenyl]-2-pyrimidinamine]
500 to 5000 | < 500 | < 500 | < 100 | < 500 | < 500 | CCNc1nc(-c2ccc3c(c2)OCO3)c(-c2ccnc(Nc3ccc(N4CCN(C(C)=O)CC4)nc3)n2)s1 [Example 53, N-[6-(4-Acetyl-1-piperazinyl)-3-pyridinyl]-4-[4-(1,3-benzodioxol-5-yl)-2-(ethylamino)-1,3-thiazol-5-yl]-2-pyrimidinamine]
500 to 5000 | < 500 | < 500 | < 100 | 500 to 5000 | < 500 | CCNc1nc(-c2ccc(Cl)c(C)c2)c(-c2ccnc(Nc3ccc(OCCN4CCCC4)c(Cl)c3)n2)s1 [Example 54, 4-[4-(4-Chloro-3-methylphenyl)-2-(ethylamino)-1,3-thiazol-5-yl]-N-(3-chloro-4-{[2-(1-pyrrolidinyl)ethyl]oxy}phenyl)-2-pyrimidinamine]
500 to 5000 | < 500 | < 500 | < 100 | < 500 | < 500 | CCNc1nc(-c2cc(OC)ccc2F)c(-c2ccnc(Nc3ccc(N4CCN(C)CC4)c(F)c3)n2)s1 [Example 56, 4-{2-(Ethylamino)-4-[2-fluoro-5-(methyloxy)phenyl]-1,3-thiazol-5-yl}-N-[3-fluoro-4-(4-methyl-1-piperazinyl)phenyl]-2-pyrimidinamine]
500 to 5000 | < 500 | < 500 | < 100 | < 500 | 500 to 5000 | CCNc1nc(-c2cc(OC)ccn2)c(-c2ccnc(Nc3ccc(OCCN4CCCC4)c(Cl)c3)n2)s1 [Example 57, N-(3-Chloro-4-{[2-(1-pyrrolidinyl)ethyl]oxy}phenyl)-4-{2-(ethylamino)-4-[4-(methyloxy)-2-pyridinyl]-1,3-thiazol-5-yl}-2-pyrimidinamine]
